In patent publication US11344488B2 (TAKASAGO INTERNATIONAL CORPORATION, priority 2017, dated 2022):

Tests used:
human TRPM8 = target: T1, human TRPM8 (Homo sapiens, UniProt Q7Z2W7); assay: Evaluation of cooling intensity (TRPM8 activity evaluation), calcium fluorescence in human TRPM8 stable expression cells; assay type: cell-based; conditions: TRPM8 activation action, Fluo4-AM fluorescence, 0.1 μM to 1000 μM, 32° C.
T1 construct: The full-length human TRPM8 gene was amplified from plasmid RC220615 (manufactured by Origene) using a PCR method; host or cells: Flp-In T-REx 293 cells ('Flp-In293293 cells' [sic]), pcDNA5/FRT/TO, doxycycline-induced
Procedure: The full-length human TRPM8 gene was amplified from plasmid RC220615 (manufactured by Origene) using a PCR method. The obtained PCR product was subcloned into pcDNA5/FRT/TO (manufactured by Thermo Fisher Scientific K.K.), and then it was introduced into Flp-In293293 cells (manufactured by Thermo Fisher Scientific K.K.) by using a Flp-InT-REx system (manufactured by Thermo Fisher Scientific K.K.), so that a human TRPM8 stable expression cell line was prepared.
The cultured human TRPM8 stable expression cells were seeded at a ratio of 50,000 cells/well to a poly-D-lysine-coated 96-well microplate (manufactured by Corning Incorporated), 1 μg/mL of doxycycline (manufactured by Takara Bio Inc.) was added thereto, and then the seeded cells were cultured at 37° C. for one night, so that the expression of the human TRPM8 was induced.
The culture solution was replaced with a buffer solution, and then, a fluorescent calcium indicator (Fluo4-AM: manufactured by Dojindo Laboratories) was added thereto, the cells were incubated at 37° C. for 30 minutes, and they were transferred to a fluorescent microplate reader (FlexStation3: manufactured by Molecular Devices, LLC.). Each of the compounds obtained in Examples and comparative compounds was added in a final concentration range of 0.1 μM to 1000 μM, and the changes in fluorescence having a wavelength of 525 nm when excited at a wavelength of 485 nm were measured at a device temperature of 32° C., and then EC50 values were determined.

oral cavity = assay: Sensory evaluation of 30 ppm aqueous solutions in the mouth by four flavorists; assay type: in vivo, human
Procedure: The evaluation was performed by four flavorists. The aqueous solution was taken into the mouth and spat out after the mouth was rinsed, and cooling intensity, cool-feeling persistence, and quality of a cool-feeling in the oral cavity were evaluated.

T1 sequence (Q7Z2W7 whole entry): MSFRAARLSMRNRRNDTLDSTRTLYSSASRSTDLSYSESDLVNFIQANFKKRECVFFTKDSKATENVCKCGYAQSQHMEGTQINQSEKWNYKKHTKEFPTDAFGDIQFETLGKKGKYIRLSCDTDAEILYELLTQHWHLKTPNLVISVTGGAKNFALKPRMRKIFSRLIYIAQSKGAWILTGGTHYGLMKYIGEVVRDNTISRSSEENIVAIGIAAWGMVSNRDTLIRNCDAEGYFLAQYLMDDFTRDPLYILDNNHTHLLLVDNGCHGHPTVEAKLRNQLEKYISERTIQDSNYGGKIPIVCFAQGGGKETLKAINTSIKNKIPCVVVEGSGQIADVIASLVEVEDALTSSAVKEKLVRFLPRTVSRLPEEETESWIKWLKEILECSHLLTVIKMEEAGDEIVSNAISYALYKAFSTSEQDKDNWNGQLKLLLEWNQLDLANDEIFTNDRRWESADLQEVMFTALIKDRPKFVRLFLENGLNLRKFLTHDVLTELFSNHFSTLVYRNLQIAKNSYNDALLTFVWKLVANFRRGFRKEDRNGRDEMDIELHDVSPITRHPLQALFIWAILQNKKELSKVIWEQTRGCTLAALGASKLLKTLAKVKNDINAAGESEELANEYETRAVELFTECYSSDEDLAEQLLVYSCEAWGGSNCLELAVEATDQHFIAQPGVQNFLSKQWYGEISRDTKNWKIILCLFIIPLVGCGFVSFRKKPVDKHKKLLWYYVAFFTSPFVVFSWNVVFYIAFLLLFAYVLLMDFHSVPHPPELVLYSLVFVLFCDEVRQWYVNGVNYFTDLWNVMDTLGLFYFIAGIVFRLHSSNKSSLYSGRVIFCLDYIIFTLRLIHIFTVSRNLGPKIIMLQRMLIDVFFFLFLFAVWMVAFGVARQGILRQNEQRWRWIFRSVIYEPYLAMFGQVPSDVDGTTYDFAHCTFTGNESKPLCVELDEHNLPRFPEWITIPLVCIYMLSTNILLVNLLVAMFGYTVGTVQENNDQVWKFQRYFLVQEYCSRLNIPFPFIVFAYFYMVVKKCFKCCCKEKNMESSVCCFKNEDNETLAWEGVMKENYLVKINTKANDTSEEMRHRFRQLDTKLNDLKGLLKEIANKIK

| EC50 (human TRPM8) [µM] | melting point [°C] | SMILES | other results |
| --- | --- | --- | --- |
| 5.98 |  | C[C@@H]1CCCC(C)(C)[C@H]1C(=O)NC[C@@H](O)c1ccccc1 [(1S, 6R)-10-6, (1S, 6R)-N-((S)-2-hydroxy-2-phenylethyl)-2,2,6-trimethylcyclohexane-1-carboxamide] |  |
| 6.36 | 96 to 99 | C[C@@H]1CCCC(C)(C)[C@H]1C(=O)NCC(O)c1ccccc1 (stereo partly drawn) [(1S, 6R)-10-4, (1S, 6R)-N-(2-hydroxy-2-phenylethyl)-2,2,6-trimethylcyclohexane-1-carboxamide] |  |
| 1.11 |  | C[C@H]1CCCC(C)(C)[C@@H]1C(=O)NCC(=O)c1ccccc1 [(1R)-10-10, (1R, 6S)-2,2,6-trimethyl-N-(2-oxo-2-phenylethyl) cyclohexane-1-carboxamide] |  |
| 2.42 |  | COc1ccc(CNC(=O)C2[C@@H](C)CCCC2(C)C)cc1 (stereo partly drawn) [(1S, 6R)-10-28] |  |
| 1.97 |  | C[C@H]1CCCC(C)(C)[C@@H]1C(=O)NCc1cccs1 [(1R, 6S)-10-22] |  |
| 1.19 | 178 to 180 | C[C@H]1CCCC(C)(C)[C@@H]1C(=O)NCCc1ccc(O)cc1 [(1R, 6S)-10-8, (1R, 6S)-N-(4-hydroxyphenethyl)-2,2,6-trimethylcyclohexane-1-carboxamide] |  |
| 3.48 |  | C[C@H]1CCCC(C)(C)[C@@H]1C(=O)NCc1ccsc1 [(1R, 6S)-10-23] |  |
| 0.6 | 95 to 98 | C[C@H]1CCCC(C)(C)[C@@H]1C(=O)NCC(O)c1ccccc1 (stereo partly drawn) [(1R, 6S)-10-4, (1R, 6S)-N-(2-hydroxy-2-phenylethyl)-2,2,6-trimethylcyclohexane-1-carboxamide] |  |
| 1.67 | 85 to 87 | C[C@H]1CCCC(C)(C)[C@@H]1C(=O)Nc1ccc(CCO)cc1 [(1R, 6S)-10-36] |  |
| 6.14 |  | C[C@H]1CCCC(C)(C)[C@@H]1C(=O)Nc1ccc(O)cc1 [(1R, 6S)-10-27] |  |
| 1.74 |  | C[C@H]1CCCC(C)(C)C1C(=O)OC[C@@H](O)c1ccccc1 (stereo partly drawn) [(1R, 6S)-10-51] |  |
| 0.59 | 79 to 82 | C[C@H]1CCCC(C)(C)[C@@H]1C(=O)NCCc1ccccc1 [(1R, 6S)-10-1, (1R, 6S)-2,2,6-trimethyl-N-phenethylcyclohexane-1-carboxamide] | cool-feeling persistence (oral cavity; 30 ppm aqueous solution): ≥ 30 min; cooling intensity (oral cavity; 30 ppm aqueous solution): very strong; cooling intensity compared with N,2,2,6-tetramethylcyclohexanecarboxamide, 1-menthol and WS-3 (oral cavity; 30 ppm aqueous solutions): apparently stronger; cooling intensity compared with WS-5 (oral cavity; 30 ppm aqueous solutions): stronger |
| 0.55 | 107 to 111 | C[C@H]1CCCC(C)(C)[C@@H]1C(=O)NC[C@@H](O)c1ccccc1 [(1R, 6S)-10-6, (1R, 6S)-N-((S)-2-hydroxy-2-phenylethyl)-2,2,6-trimethylcyclohexane-1-carboxamide] |  |
| 2.1 |  | C[C@H]1CCCC(C)(C)[C@H]1C(=O)NCC(=O)c1ccccc1 [(1S)-10-10, (1S, 6S)-2,2,6-trimethyl-N-(2-oxo-2-phenylethyl) cyclohexane-1-carboxamide] |  |
| 3.96 |  | C[C@H]1CCCC(C)(C)[C@@H]1C(=O)NC[C@H](O)c1ccccc1 [(1R, 6S)-10-5, (1R, 6S)-N-((R)-2-hydroxy-2-phenylethyl)-2,2,6-trimethylcyclohexane-1-carboxamide] |  |
| 5.9 | 180 to 182 | C[C@@H]1CCCC(C)(C)[C@H]1C(=O)NCCc1ccc(O)cc1 [(1S, 6R)-10-8, (1S, 6R)-N-(4-hydroxyphenethyl)-2,2,6-trimethylcyclohexane-1-carboxamide] |  |
| 15 |  | C[C@H]1CCCC(C)(C)[C@@H]1C(=O)Nc1ccncc1 [(1R, 6S)-10-43] |  |
| 7.68 | 105 to 110 | C[C@@H]1CCCC(C)(C)[C@H]1C(=O)NC[C@H](O)c1ccccc1 [(1S, 6R)-10-5, (1S, 6R)-N-((R)-2-hydroxy-2-phenylethyl)-2,2,6-trimethylcyclohexane-1-carboxamide] |  |

More lines, now with the values behind:

| SMILES | EC50 (human TRPM8) [µM] | melting point [°C] | other results |
| --- | --- | --- | --- |
| CCNC(=O)[C@@H]1C[C@H](C)CCC1C(C)C (stereo partly shown) [WS-3, reference compound] | 1.61 |  |  |
| CNC(=O)[C@@H]1[C@@H](C)CCCC1(C)C (stereo in doubt) [N,2,2,6-tetramethylcyclohexanecarboxamide, reference compound] | 110 |  |  |
| CCNC(=O)C(C)(C(C)C)C(C)C [WS-23, reference compound] | 23.1 |  |  |
| COc1ccc(NC(=O)[C@@H]2[C@@H](C)CCCC2(C)C)cc1 [(1R, 6S)-10-28] | 1.59 |  |  |
| CCOC(=O)CNC(=O)[C@@H]1C[C@H](C)CCC1C(C)C (stereo partly shown) [WS-5, reference compound] | 0.73 |  |  |
| C[C@H]1CCCC(C)(C)[C@@H]1C(=O)Nc1ccc(CC#N)cc1 [(1R, 6S)-10-42] | 1.77 |  |  |
| COc1ccc(CCNC(=O)[C@@H]2[C@@H](C)CCCC2(C)C)cc1OC [(1R, 6S)-10-13] | 7.72 |  |  |
| COC(=O)c1ccc(NC(=O)[C@@H]2[C@@H](C)CCCC2(C)C)cc1 [(1R, 6S)-10-38] | 5.76 |  |  |
| CSc1ccc(NC(=O)[C@@H]2[C@@H](C)CCCC2(C)C)cc1 [(1R, 6S)-10-41] | 1.06 |  |  |
| CC(=O)c1ccc(NC(=O)[C@@H]2[C@@H](C)CCCC2(C)C)cc1 [(1R, 6S)-10-35] | 1.19 |  |  |
| C[C@H]1CCCC(C)(C)[C@@H]1C(=O)NCCc1ccc(O)c(O)c1 [(1R, 6S)-10-12] | 2.55 | 75 to 77 |  |
| C[C@H]1CCCC(C)(C)[C@@H]1C(=O)Nc1ccc2c(c1)OCO2 [(1R, 6S)-10-33] | 3.75 |  |  |
